Source: patent US20210330611A1, “THERAPY FOR NEUROLOGICAL DISEASES/DISORDERS” (priority 2020, published 2021)
Like-named read-outs stand apart in the source and are kept apart here.

Tests used:
[1] = system: LPS-induced microglia activation; test: Image-based assay of LPS-induced microglia activation (HTS and dose response); format: cell-based, rat; conditions: Rattus norvegicus, Microglia; for inhibition at 10 µM: primary microglia HTS, LPS stimulation, read-out: LPS % inhibition
in vitro [2] = conditions: rat, Cell Toxicity IC50 (uM) [cFib assay]
primary rat microglia [3] = test: Cell toxicity (dead cells, size <150 μm2) in coated fibrin (cFib) assay; conditions: primary microglia HTS, fibrin stimulation;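 on Fibrin % cell toxicity: share of dead cells sized under 150 µm2 at 10 µM in fibrin-stimulated microglia HTS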
primary rat microglia [4] = test: Cell toxicity (dead cells, size <150 μm2) in LPS assay; conditions: for LPS % cell toxicity: primary microglia HTS, LPS stimulation; for IC50: read-out: Cell Toxicity IC50 (uM) [LPS assay], LPS assay
in vitro [5] = conditions: rat
[6] = system: fibrin-induced microglia activation; test: Image-based assay of fibrin-induced microglia activation (HTS and dose response); format: cell-based, rat; conditions: for IC50 / inhibition at 10 µM: Rattus norvegicus, Microglia; for inhibition at 10 µM: primary microglia HTS, fibrin stimulation, read-out: Fibrin % inhibition
[7] = system: fibrin- and LPS-induced microglia activation; test: cells; format: cell-based, rat; conditions: for inhibition at 10 µM: Rattus norvegicus; for Activity: Table 7, fib = fibrin, LPS, tox = toxicity
[8] = 48 h, Table 1, dose response 0.001-20 μM, triplicates, primary rat microglia, 48 h, read-out: LPS IC50
[9] = 48 h, increased cell size (>800 μm^2) as marker of activation
[10] = LPS-induced microglia activation, dose response, read-out: LPS IC50 (uM) (Suppl. Table 7)
[11] = dose response, LPS-induced microglia activation, read-out: LPS IC50
[12] = decreased size (<150 μm^2) as marker of toxicity
[13] = 48 h, Table 1, dose response 0.001-20 μM, triplicates, primary rat microglia, 48 h, read-out: Fibrin IC50
[14] = dose response, fibrin-induced microglia activation, read-out: Fibrin IC50
[15] = fibrin-induced microglia activation, dose response, read-out: Fibrin IC50 (uM) (Suppl. Table 7)
[16] = increased cell size (>800 μm^2) as marker of activation
[17] = HTS of 1907 compounds, quadrant by fibrin and LPS inhibition
[18] = Microglia, HTS hit classification, read-out: Hit
[19] = hit classification in microglia HTS, read-out: Cherry-picked Hit (Suppl. Table 7)
[20] = quadrant by fibrin and LPS inhibition in HTS of 1907 compounds

Row | Structure (SMILES) | IC50 [1, 8] [µM] | inhibition at 10 µM [1, 9] [%] | IC50 [1, 10] [µM] | IC50 [1, 11] [µM] | IC50 (in vitro [2]; cFib assay) [µM] | Fibrin % cell toxicity (primary rat microglia [3]; [12]) [%] | LPS % cell toxicity (primary rat microglia [4]; [12]) [%] | IC50 (in vitro [5]) [µM] | IC50 [6, 13] [µM] | IC50 [6, 14] [µM] | IC50 [6, 15] [µM] | inhibition at 10 µM [6, 16] [%] | Quadrant (FIG. 5b) [7, 17] | inhibition at 10 µM [7, 18] [%] | inhibition at 10 µM [7, 19] [%] | Quadrant (FIG. 5b) ([7]; Table 1, screen at 10 μM) | Quadrant (FIG. 5b) [7, 20] | IC50 ([1]; Table 7, read-out: LPS_IC50) [µM] | IC50 ([6]; Table 7, read-out: fib_IC50) [µM] | Quadrant (FIG. 5b) ([7]; Table 2, screen at 10 μM) | other results
1 | COC(=O)Nc1nc2ccc(Sc3ccccc3)cc2[nH]1 [Fenbendazole, reference compound] | 4 | 10 | 4 | 4 | > 20 | 1 | 1 | > 20 | 3 | 3 | 3 | 75 | Q3 | > 50 | > 50 | Q3 | Q3 |  |  |  | 
2 | CC(=O)OCC(=O)[C@@]1(O)CC[C@H]2[C@@H]3CCC4=CC(=O)CC[C@]4(C)[C@@]3(F)[C@@H](O)C[C@@]21C [Fludrocortisone acetate, reference compound] | 0.4 | 101 | 0.4 | 0.4 | > 20 | 2 | 4 | > 20 | < 0.001 | < 0.001 | < 0.001 | 104 | Q2 | > 50 |  | Q2 | Q2 | 0.002 | 0.002 | Q2 | IC50 ([1]; Table 3, read-out: LPS IC50 (uM) (Suppl. Table 7)): 0.4 µM; IC50 ([1]; Table 6, read-out: LPS IC50 (uM) (Suppl. Table 7)): 0.4 µM; IC50 (in vitro [2]; Table 3): > 20 µM; IC50 (in vitro [2]; cFib assay, Table 6): > 20 µM; IC50 (primary rat microglia [4]): > 20 µM; IC50 (primary rat microglia [4]; Table 6): > 20 µM; Fibrin Selectivity [6]: 362; Fibrin Selectivity (LOG10) [6]: 2.56; IC50 ([6]; Table 3, read-out: Fibrin IC50 (uM) (Suppl. Table 7)): < 0.001 µM; IC50 ([6]; Table 6, read-out: Fibrin IC50 (uM) (Suppl. Table 7)): < 0.001 µM; inhibition at 10 µM ([7]; Microglia, Table 3, read-out: Cherry-picked Hit (Suppl. Table 7)): > 50%; Quadrant (FIG. 5b) ([7]; Table 3, screen at 10 μM): Q2; Activity [7]: fib/LPS; Quadrant (FIG. 5b) ([7]; microglia HTS, Table 6): Q2
3 | CC1(C)O[C@@H]2C[C@H]3[C@@H]4C[C@H](F)C5=CC(=O)C=C[C@]5(C)[C@@]4(F)[C@@H](O)C[C@]3(C)[C@]2(C(=O)CO)O1 [Fluocinolone acetonide, reference compound] | < 0.001 | 104 | < 0.001 | < 0.001 | > 20 | 2 | 4 | > 20 | < 0.001 | < 0.001 | < 0.001 | 105 | Q2 | > 50 | > 50 | Q2 |  | 0.002 | 0.002 | Q2 | inhibition at 10 µM ([1]; 48 h, activation = cell size >800 μm2): 10%; Fibrin % cell toxicity (primary rat microglia [3]; toxicity = cell size <150 μm2): 1%; LPS % cell toxicity (primary rat microglia [4]; toxicity = cell size <150 μm2): 0%; inhibition at 10 µM ([6]; activation = cell size >800 μm2): -35%; Activity [7]: fib/LPS
4 | Cc1cccc(C)c1NC(=O)c1ccccc1C(=O)O [Ftaxilide, reference compound] | > 20 | 42 | > 20 | > 20 | > 20 | 2 | 1 | > 20 | > 20 | > 20 | > 20 | 78 | Q3 | > 50 | > 50 | Q3 | Q3 |  |  |  | 
